Here are results for 18 molecules from US8614201B2 (Janssen Pharmaceutica NV, priority 2009, dated 2013).

One may read the IC50 as the concentration at which inhibition is half-maximal. A lower IC50 goes with greater potency in that assay.

Bounds are passed on as bounds.

The test deals with Human TRPA1 (Homo sapiens, UniProt O75762). In words: Alternative TRPA1 Ca2+ fluorometry assay (hTRPA1/TREx-HEK293 cells, Fluo-4, FDSS 6000). Format: cell-based. Details: expressed in transfected cells. The note with it: Fluo-4-AM, agonist 6,11-dihydro-5H-dibenzo[b,e]azepine-10-carboxylic acid methyl ester 25 nM, procedure used for Examples 184, 190 to 192, 194 to 316. The method in brief: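 Tetracycline-induced (50 ng/ml, 24 h) hTRPA1/TREx-HEK293 cells were loaded with Fluo-4-AM and probenecid. Compound (1% DMSO final) was added after a 12 s baseline and the Ca2+ signal followed for 14 min, then 25 nM TRPA1 agonist dibenzazepine carboxylic acid methyl ester was applied. Signal is Em540 (ex 488 nm) relative to the first baseline reading.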
Sequence of Human TRPA1 (O75762 whole entry): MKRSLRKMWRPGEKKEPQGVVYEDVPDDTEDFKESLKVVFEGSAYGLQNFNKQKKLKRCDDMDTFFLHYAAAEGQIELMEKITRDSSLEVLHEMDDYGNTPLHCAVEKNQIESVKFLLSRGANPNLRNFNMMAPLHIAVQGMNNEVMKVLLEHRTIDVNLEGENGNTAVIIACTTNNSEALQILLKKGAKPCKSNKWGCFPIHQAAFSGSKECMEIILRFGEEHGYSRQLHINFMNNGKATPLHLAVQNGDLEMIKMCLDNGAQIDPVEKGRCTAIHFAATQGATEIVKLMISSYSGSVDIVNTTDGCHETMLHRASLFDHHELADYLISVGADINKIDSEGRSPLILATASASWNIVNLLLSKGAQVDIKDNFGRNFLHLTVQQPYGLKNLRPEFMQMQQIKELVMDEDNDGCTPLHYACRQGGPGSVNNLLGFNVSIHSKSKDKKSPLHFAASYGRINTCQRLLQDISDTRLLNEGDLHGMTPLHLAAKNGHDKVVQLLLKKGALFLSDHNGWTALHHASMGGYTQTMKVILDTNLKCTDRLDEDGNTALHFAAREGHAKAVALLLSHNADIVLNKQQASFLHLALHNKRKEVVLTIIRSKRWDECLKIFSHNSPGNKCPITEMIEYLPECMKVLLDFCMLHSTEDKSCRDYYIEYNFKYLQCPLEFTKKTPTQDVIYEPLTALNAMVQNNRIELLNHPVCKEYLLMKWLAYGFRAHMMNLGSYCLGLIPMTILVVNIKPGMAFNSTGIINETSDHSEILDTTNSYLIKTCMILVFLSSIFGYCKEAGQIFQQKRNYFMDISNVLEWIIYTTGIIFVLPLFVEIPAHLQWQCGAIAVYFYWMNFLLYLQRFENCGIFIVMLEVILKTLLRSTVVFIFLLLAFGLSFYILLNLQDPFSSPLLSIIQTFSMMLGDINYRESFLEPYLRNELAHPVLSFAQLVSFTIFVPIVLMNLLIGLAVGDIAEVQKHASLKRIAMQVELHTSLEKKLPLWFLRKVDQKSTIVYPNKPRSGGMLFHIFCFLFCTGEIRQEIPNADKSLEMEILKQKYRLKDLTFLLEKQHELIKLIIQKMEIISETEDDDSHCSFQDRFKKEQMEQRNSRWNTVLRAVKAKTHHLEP

`O=C(NCc1cc(-c2ccc(C(F)(F)F)cc2)nc(N2CCN(c3ccccc3F)CC2)n1)[C@@H]1CCCN1S(=O)(=O)c1ccccc1F` [Example 276, 1-(2-Fluoro-benzenesulfonyl)-pyrrolidine-2S-carboxylic acid [2-[4-(2-fluoro-phenyl)-piperazin-1-yl]-6-(4-trifluoromethyl-phenyl)-pyrimidin-4-ylmethyl]-amide] came in with an IC50 of 6.17 µM.

On to `Cc1cccc(Cl)c1S(=O)(=O)N1CCC[C@H]1C(=O)NCc1cc(-c2ccc(C(F)(F)F)cc2)nc(N2CCN(c3ccccc3F)CC2)n1` [Example 277, 1-(2-Chloro-6-methyl-benzenesulfonyl)-pyrrolidine-2S-carboxylic acid [2-[4-(2-fluoro-phenyl)-piperazin-1-yl]-6-(4-trifluoromethyl-phenyl)-pyrimidin-4-ylmethyl]-amide], for which the IC50 was above 10 µM.

The molecule `O=C(NCc1cc(-c2ccc(C(F)(F)F)cc2)nc(N2CCN(c3ccccc3F)CC2)n1)[C@@H]1CCCN1S(=O)(=O)c1ccc(Cl)cc1F` [Example 278, 1-(4-Chloro-2-fluoro-benzenesulfonyl)-pyrrolidine-2S-carboxylic acid [2-[4-(2-fluoro-phenyl)-piperazin-1-yl]-6-(4-trifluoromethyl-phenyl)-pyrimidin-4-ylmethyl]-amide] showed an IC50 above 10 µM.

Regarding `Cc1ccccc1S(=O)(=O)N1CCC[C@H]1C(=O)NCc1cc(-c2ccc(C(F)(F)F)cc2)nc(N2CCN(c3ccccc3F)CC2)n1` [Example 279, 1-(Toluene-2-sulfonyl)-pyrrolidine-2S-carboxylic acid [2-[4-(2-fluoro-phenyl)-piperazin-1-yl]-6-(4-trifluoromethyl-phenyl)-pyrimidin-4-ylmethyl]-amide], the IC50 is above 10 µM.

Regarding `Cc1ccc(S(=O)(=O)N2CCC[C@H]2C(=O)NCc2cc(-c3ccc(C(F)(F)F)cc3)nc(N3CCN(c4ccccc4F)CC3)n2)cc1Cl` [Example 280, 1-(3-Chloro-4-methyl-benzenesulfonyl)-pyrrolidine-2S-carboxylic acid [2-[4-(2-fluoro-phenyl)-piperazin-1-yl]-6-(4-trifluoromethyl-phenyl)-pyrimidin-4-ylmethyl]-amide], the IC50 is above 10 µM.

With `O=C(NCc1cc(-c2ccc(C(F)(F)F)cc2)nc(N2CCN(c3ccccc3F)CC2)n1)[C@@H]1CCCN1S(=O)(=O)c1cc(F)cc(F)c1` [Example 281, 1-(3,5-Difluoro-benzenesulfonyl)-pyrrolidine-2S-carboxylic acid [2-[4-(2-fluoro-phenyl)-piperazin-1-yl]-6-(4-trifluoromethyl-phenyl)-pyrimidin-4-ylmethyl]-amide], the IC50 was 5.49 µM.

For `CC(C)(C)c1ccc(S(=O)(=O)N2CCC[C@H]2C(=O)NCc2cc(-c3ccc(C(F)(F)F)cc3)nc(N3CCN(c4ccccc4F)CC3)n2)cc1` [Example 282, 1-(4-tert-Butyl-benzenesulfonyl)-pyrrolidine-2S-carboxylic acid [2-[4-(2-fluoro-phenyl)-piperazin-1-yl]-6-(4-trifluoromethyl-phenyl)-pyrimidin-4-ylmethyl]-amide], the half-maximal inhibitory concentration (IC50) was above 10 µM.

As for `O=C(NCc1cccc(-c2ccc(C(F)(F)F)cc2)n1)[C@@H]1CCCN1S(=O)(=O)c1ccc(F)cc1` [Example 283, 1-(4-Fluoro-benzenesulfonyl)-pyrrolidine-2S-carboxylic acid [6-(4-trifluoromethyl-phenyl)-pyridin-2-ylmethyl]-amide], the IC50 is around 0.724 µM.

Molecule `O=C(NCc1cccc(-c2ccc(C(F)(F)F)cc2)n1)[C@@H]1CCCN1S(=O)(=O)c1ccc(Cl)s1` [Example 284, 1-(5-Chloro-thiophene-2-sulfonyl)-pyrrolidine-2S-carboxylic acid [6-(4-trifluoromethyl-phenyl)-pyridin-2-ylmethyl]-amide] came in with an IC50 of around 1.07 µM.

The molecule `O=C(NCc1cc(-c2ccc(C(F)(F)F)cc2)nc(-c2ccc(C(F)(F)F)cc2)n1)[C@@H]1CCCN1S(=O)(=O)c1ccc(F)cc1` [Example 285, 1-(4-Fluoro-benzenesulfonyl)-pyrrolidine-2S-carboxylic acid [2,6-bis-(4-trifluoromethyl-phenyl)-pyrimidin-4-ylmethyl]-amide] came in with an IC50 of 0.022 µM.

For `O=C(NCc1cc(-c2ccc(C(F)(F)F)cc2)nc(N2CCN(c3ccccc3F)CC2)n1)[C@@H]1CCCN1S(=O)(=O)c1ccc(F)cc1` [Example 286, 1-(4-Fluoro-benzenesulfonyl)-pyrrolidine-2S-carboxylic acid [2-[4-(2-fluoro-phenyl)-piperazin-1-yl]-6-(4-trifluoromethyl-phenyl)-pyrimidin-4-ylmethyl]-amide], the IC50 is around 0.158 µM.

Molecule `COc1ccc(Nc2nc(CNC(=O)[C@@H]3CCCN3S(=O)(=O)c3ccc(F)cc3)cc(-c3ccc4c(c3)OCO4)n2)cc1` [Example 287, 1-(4-Fluoro-benzenesulfonyl)-pyrrolidine-2S-carboxylic acid [6-benzo[1,3]dioxol-5-yl-2-(4-methoxy-phenylamino)-pyrimidin-4-ylmethyl]-amide] yielded an IC50 of 3.72 µM.

`CN1CCN(C(=O)c2ccc(Nc3nc(CNC(=O)[C@@H]4CCCN4S(=O)(=O)c4ccc(F)cc4)cc(-c4ccc5c(c4)OCO5)n3)cc2)CC1` [Example 288, 1-(4-Fluoro-benzenesulfonyl)-pyrrolidine-2S-carboxylic acid {6-benzo[1,3]dioxol-5-yl-2-[4-(4-methyl-piperazine-1-carbonyl)-phenylamino]-pyrimidin-4-ylmethyl}-amide] showed an IC50 above 10 µM.

For the molecule `CC(C)CN(CCO)c1nc(CNC(=O)[C@@H]2CCCN2S(=O)(=O)c2ccc(F)cc2)cc(-c2ccc(Br)cc2)n1` [Example 289, 1-(4-Fluoro-benzenesulfonyl)-pyrrolidine-2S-carboxylic acid {6-(4-bromo-phenyl)-2-[(2-hydroxy-ethyl)-isobutyl-amino]-pyrimidin-4-ylmethyl}-amide], the IC50 is around 3.47 µM.

As to `O=C(NCc1cc(-c2ccc(Br)cc2)nc(NC2CC2)n1)[C@@H]1CCCN1S(=O)(=O)c1ccc(F)cc1` [Example 290, 1-(4-Fluoro-benzenesulfonyl)-pyrrolidine-2S-carboxylic acid [6-(4-bromo-phenyl)-2-cyclopropylamino-pyrimidin-4-ylmethyl]-amide], the IC50 is around 0.708 µM.

In turn, `C#CCNc1nc(CNC(=O)[C@@H]2CCCN2S(=O)(=O)c2ccc(F)cc2)cc(-c2ccc(C(F)(F)F)cc2)n1` [Example 291] registered an IC50 of around 0.407 µM.

Regarding `O=C(NCc1cc(-c2ccc3c(c2)OCO3)nc(NCCc2ccc(Cl)cc2Cl)n1)[C@@H]1CCCN1S(=O)(=O)c1ccc(F)cc1` [Example 292, 1-(4-Fluoro-benzenesulfonyl)-pyrrolidine-2S-carboxylic acid {6-benzo[1,3]dioxol-5-yl-2-[2-(2,4-dichloro-phenyl)-ethylamino]-pyrimidin-4-ylmethyl}-amide], the IC50 is above 10 µM.

With `O=C(NCc1cc(-c2ccc(Br)cc2)nc(NCCO)n1)[C@@H]1CCCN1S(=O)(=O)c1ccc(F)cc1` [Example 293, 1-(4-Fluoro-benzenesulfonyl)-pyrrolidine-2S-carboxylic acid [6-(4-bromo-phenyl)-2-(2-hydroxy-ethylamino)-pyrimidin-4-ylmethyl]-amide], the IC50 was determined as 2.69 µM.
